In US20230263826A1, “Compositions and Methods for Treatment and Prevention of Type 1 Diabetes” (The UAB Research Foundation, priority 2021, published 2023):

Biological target: T1, iPLA2β (Mus musculus, UniProt P97819)
T1 construct: from tissue; host or cells: whole animal: female NOD mice (wild-type Pla2g6), urine collected for PGE2 metabolites
T1 sequence (P97819 1-807): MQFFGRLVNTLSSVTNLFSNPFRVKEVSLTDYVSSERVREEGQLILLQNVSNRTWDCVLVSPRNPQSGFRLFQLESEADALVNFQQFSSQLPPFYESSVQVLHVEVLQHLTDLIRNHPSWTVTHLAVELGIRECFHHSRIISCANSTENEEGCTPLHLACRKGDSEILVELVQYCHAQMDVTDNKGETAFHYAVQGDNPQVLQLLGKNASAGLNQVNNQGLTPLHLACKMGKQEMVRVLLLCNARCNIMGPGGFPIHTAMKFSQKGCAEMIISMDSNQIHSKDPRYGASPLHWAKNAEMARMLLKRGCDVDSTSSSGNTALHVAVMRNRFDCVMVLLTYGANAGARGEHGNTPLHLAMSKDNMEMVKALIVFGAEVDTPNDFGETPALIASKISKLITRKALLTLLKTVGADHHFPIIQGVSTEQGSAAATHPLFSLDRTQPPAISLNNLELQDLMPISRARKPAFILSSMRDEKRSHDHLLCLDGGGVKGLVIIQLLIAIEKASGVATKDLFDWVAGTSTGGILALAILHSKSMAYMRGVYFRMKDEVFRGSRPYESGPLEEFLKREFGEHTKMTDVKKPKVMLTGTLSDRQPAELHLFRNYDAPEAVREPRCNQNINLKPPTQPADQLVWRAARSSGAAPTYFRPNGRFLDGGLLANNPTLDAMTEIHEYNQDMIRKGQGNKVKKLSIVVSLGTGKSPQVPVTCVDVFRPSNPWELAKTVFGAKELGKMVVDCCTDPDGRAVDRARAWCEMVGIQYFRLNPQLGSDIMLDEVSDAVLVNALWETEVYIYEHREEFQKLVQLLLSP
Assay: Urinary PGE2 metabolites (PGEM), reflecting in vivo inhibition of iPLA2β activity
Conditions: 8-week regimen group; 18 weeks of age
Procedure: FIGS. 1A-1M show the effects of temporal FKGK18 regimen on T1D incidence and islet phenotype, wherein female NOD mice were administered FKGK18 (20 mg/kg, 3 × weekly) or vehicle (PBS-T) starting at 4 or 8 weeks of age. FIGS. 1A and 1B show diabetes incidence; blood glucose was monitored weekly in the 4-week (FIG. 1A; n = 17 and 15 for PBS-T and FKGK18 groups, respectively) and 8-week (FIG. 1B; n = 15 each in the PBS-T and FKGK18 groups) regimen groups for up to 30 weeks. Two consecutive readings of ≥ 275 mg/dL were recorded as onset of T1D (^†P < 0.05). FIGS. 1C-1F show glucose tolerance test (GTT) results, wherein overnight fasted mice were administered glucose (2 g/kg, i.p.), glucose levels in blood from tail vein were monitored over a 2-hour period, and AUC were generated. […] FIGS. 1H and 1I show β Cell mass (PBS-T, n = 15; FKGK18, n = 14) (FIG. 1H) and circulating insulin (n = 15 in each group) (FIG. 1I) were determined at sacrifice (PBS-T, 14-30 weeks of age; FKGK18, 16-36 weeks of age). FIGS. 1J and 1K show islet infiltration; paraffin sections (10 µm) of pancreas were prepared and stained with H&E. Percent infiltration for each islet was calculated as the value of noninfiltrated area subtracted from total islet area (% infiltrate = 100 × [(total area - noninfiltrated area)/(total area)]) using ImageJ software. […]

Structure (SMILES): O=C(CCCCc1ccc2ccccc2c1)C(F)(F)F [FKGK18]
- urinary PGE2 metabolites (PGEM) relative to vehicle-treated mice: reduced
